In paper PMC3927067 (Journal of Computer-Aided Molecular Design, 2014):
Where “and” joins values, the source holds several entries; their conditions need not be identical. Equal entries are not always repeated. Where two headings read alike, the source gives them in different places.

Key:
hOX2R = biological target: T1, hOX2R (Homo sapiens, UniProt O43614); test: Orexin 2 receptor binding assay
T1 sequence (O43614 1-444): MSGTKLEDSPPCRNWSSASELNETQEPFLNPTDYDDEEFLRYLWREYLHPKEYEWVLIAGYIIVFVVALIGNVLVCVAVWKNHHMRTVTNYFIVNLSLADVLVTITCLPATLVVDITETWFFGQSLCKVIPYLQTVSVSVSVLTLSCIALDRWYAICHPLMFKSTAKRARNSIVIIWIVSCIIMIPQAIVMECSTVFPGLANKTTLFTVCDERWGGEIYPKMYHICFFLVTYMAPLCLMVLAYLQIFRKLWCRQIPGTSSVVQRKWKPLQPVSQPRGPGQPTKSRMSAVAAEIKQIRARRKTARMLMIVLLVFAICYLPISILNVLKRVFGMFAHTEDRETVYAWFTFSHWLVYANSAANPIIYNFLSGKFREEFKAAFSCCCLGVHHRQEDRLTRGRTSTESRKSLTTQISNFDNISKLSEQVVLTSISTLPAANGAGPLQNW

[1] = NMR solution conformation (NOE); format: physicochemical; conditions: CD3OD at −40 °C
Text: Although the molecular and quantum mechanical methods were in agreement with one another, we sought additional experimental methods to either support or refute our initial computational findings. We first determined the unbound, small-molecule crystal structure. The RMSD between the computationally derived conformation depicted in Fig. 1 and the X-ray structure was 0.75 Å (non-hydrogen atoms). Additionally, no differences between the geometries of the nitrogen atoms of the seven-membered ring nor the amide bond were observed between the theoretically and experimentally derived conformations. Even though there was no computed difference between the conformations (Table 1) when implicit solvent was invoked, we sought to experimentally confirm that the solution state conformation was consistent with the aforementioned theoretical and crystal structure experiments. There was again excellent agreement from NMR spectroscopy applied to compound 1, with NOE evidence for the F2F interaction in the major rotamer. In fact, two F2F rotamers in the ensemble accounted for 82 % of the total solution conformation (CD3OD at −40 °C), each with a motif similar to that found by computational analysis and X-ray structure.

hOX1R = biological target: T2, hOX1R (Homo sapiens, UniProt O43613); test: Orexin 1 receptor binding assay
T2 sequence (O43613 1-425): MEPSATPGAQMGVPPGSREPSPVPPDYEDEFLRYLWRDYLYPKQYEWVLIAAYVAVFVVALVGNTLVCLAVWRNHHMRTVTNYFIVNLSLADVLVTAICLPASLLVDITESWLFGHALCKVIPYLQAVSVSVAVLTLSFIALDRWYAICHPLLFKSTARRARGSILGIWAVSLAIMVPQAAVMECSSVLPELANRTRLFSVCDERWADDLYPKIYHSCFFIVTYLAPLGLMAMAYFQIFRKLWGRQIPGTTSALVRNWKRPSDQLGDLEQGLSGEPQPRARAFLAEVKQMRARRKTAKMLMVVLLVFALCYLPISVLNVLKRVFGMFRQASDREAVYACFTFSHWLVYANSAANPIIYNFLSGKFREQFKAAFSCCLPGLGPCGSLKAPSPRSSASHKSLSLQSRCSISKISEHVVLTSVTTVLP

[2] = cited from earlier work
[3] = parameters: method as in PMID 20565075; conditions: cited from earlier work
[4] = Brain/plasma ratio, iv infusion study; conditions: rat
preclinical species = test: In vivo sleep promotion
[5] = mean of replicates, read-out: OX2R Ki
[6] = supplement, individual replicates, Ki and nM taken from Table 3, read-out: OX2R individual replicate
[7] = mean of replicates, read-out: OX1R Ki
[8] = supplement, individual replicates, Ki and nM taken from Table 3, read-out: OX1R individual replicate
[9] = supplement, unlabelled mean below the replicates, Ki and nM taken from b8/Table 3, read-out: OX1R mean of replicates
[10] = supplement, unlabelled mean below the replicates, Ki and nM taken from b8/Table 3, read-out: OX2R mean of replicates

| Compound | Ki (hOX2R; [5]) [nM] | Ki (hOX2R; [6]) | share of two F2F rotamers in total solution conformation [1] [%] | Ki (hOX1R; [7]) [nM] | Ki (hOX1R; [8]) | Ki (hOX1R; [9]) [nM] | Ki (hOX2R; [10]) [nM] | times less active than compound 4 (hOX1R; binding, relative to compound 4, receptor not specified) | metabolic liability [2] | in vivo activity [3] | metabolic issues ([2]; benzoxazole replacing quinazoline ring) | Kp ([4]; brain and plasma, iv) | CNS penetration ([4]; iv infusion study) | toxicology profile (Toxicology profile) | sleep promotion in vivo (preclinical species) |
| --- | --- | --- | --- | --- | --- | --- | --- | --- | --- | --- | --- | --- | --- | --- | --- |
| Cc1ccc(-n2nccn2)c(C(=O)N2CCCN(c3ncc4ccccc4n3)CC2)c1 [Compound 1] | 0.8 | 0.773 nM and 0.86 nM and 1.01 nM and 0.775 nM and 0.811 nM and 0.65 nM and 0.64 nM and 0.61 nM and 0.57 nM and 0.606 nM and 0.41 nM and 0.72 nM and 0.754 nM and 0.866 nM and 0.905 nM and 0.731 nM and 1.31 nM and 0.954 nM and 0.71 nM | 82 | 1.2 | 2.2 nM and 0.71 nM and 0.58 nM and 1.3 nM and 0.94 nM and 0.62 nM and 0.54 nM and 2.4 nM and 1.4 nM | 1.2 | – | – | – | – | – | – | – | – | – |
| O=C(c1cc(Cl)ccc1-n1nccn1)N1CC2CC(C1)N(c1ncc3cc(F)ccc3n1)C2 (stereo not drawn) [Compound 4] | 0.6 | 0.66 nM and 0.57 nM | – | 0.4 | 0.43 nM and 0.42 nM | 0.425 | 0.615 | – | – | – | – | – | – | – | – |
| Cc1ccc(-n2nccn2)c(C(=O)N2CC3CC2CCN3c2ncc3cc(F)ccc3n2)c1 (stereo not drawn) [Compound 5] | 2740 | 2800 nM and 2280 nM and 3150 nM | – | > 1700 | – | – | 2740 | > 1,000 times | – | – | – | – | – | – | – |
| C[C@@H]1CCN(c2ncc3cc(F)ccc3n2)CCN1C(=O)c1cc(Cl)ccc1-n1nccn1 [Compound 6] | 0.2 | 0.19 nM and 0.11 nM | – | 0.6 | 0.9 nM and 0.31 nM | 0.605 | 0.15 | – | metabolic liability | excellent in vivo activity | – | – | – | – | – |
| Cc1ccc(-n2nccn2)c(C(=O)N2CCN(c3nc4cc(Cl)ccc4o3)CC[C@H]2C)c1 [Compound 7, Suvorexant] | – | – | – | – | – | – | – | – | – | – | devoid of the metabolic issues | 0.6 to 1.2 | CNS penetrant | favorable toxicology profile | promote sleep in preclinical species in a dose dependent fashion |
